Results taken from patent USRE39707E1, “Camptothecin derivatives” (Catholic Healthcare West, priority 2001, dated 2007).

Tests used:
[1] = tested on: VM46; assay: Cell colony formation assay, VM46 cells; assay type: cell-based; details: 72 hours drug exposure
Experimental: (§1) This example provides directions for growing cells and testing compounds of the invention for their effect on the growth of the cells. All cells were purchased from DCIDC Tumor Repository, NCI, NIH.
(§2) Four hundred cells (HCT 116, PC-3, NCI/ADR-RES: human breast cancer cells) or five hundred cells (VM46) were plated in 60 mm Petri dishes containing 2.7 ml of medium (modified McCoy's 5a medium) containing 10% fetal bovine serum and 100 units/ml penicillin and 100 mg/ml streptomycin. The cells were incubated in a CO2 incubator at 37° C. for 5 hours for attachment to the bottom of Petri dishes. Drugs were made fresh in medium at ten times the final concentration, and then 0.3 ml of this stock solution was added to the 2.7 ml of medium in the dish. The cells were then incubated with drugs for 72 hours at 37° C. At the end of the incubation the drug-containing media were decanted, the dishes were rinsed with 4 ml of Hank's Balance Salt Solution (HBSS), 5 ml of fresh medium was added, and the dishes were returned to the incubator for colony formation. The cell colonies were counted using colony counter after incubation for 7 days for HCT116 cells and PC-3 cells and 8 days for VM46 cells, respectively.
(§3) Values of ID50 (the drug concentration producing 50% inhibition of colony formation) may be determined for each tested compound. The directions described in this example may be used in other cells, such as DU-145.

[2] = tested on: PC-3; assay: Cell colony formation assay, PC-3 cells; assay type: cell-based, human; details: 72 hours drug exposure
Experimental: as §1, §2, §3

[3] = tested on: HCT116; assay: Cell colony formation assay, HCT116 cells; assay type: cell-based, human; details: 72 hours drug exposure
Experimental: as §1
as §2, with “The” for “Four hundred cells (HCT 116, PC-3, NCI/ADR-RES: human breast cancer cells) or five hundred cells (VM46) were plated in 60 mm Petri dishes containing 2.7 ml of medium (modified McCoy's 5a medium) containing 10% fetal bovine serum and 100 units/ml penicillin and 100 mg/ml streptomycin. The”

[4] = tested on: C3H/HeJ mice; details: maximum tolerated dose at day 40, C3H/HeJ mice
Experimental: This example provides directions for performing in vivo toxicity tests of the compounds of the invention on C3H/HeJ mice.
Acute toxicities of the compounds of this invention are evaluated on C3H/HeJ mice (body weight 18-22 g). The MTD40 (maximum tolerated dose at day 40) values were determined by the standard procedure described by Gad and Chengelis (see, for example, “Acute Toxicology Testing,” 2nd Ed., Shayne O. Gad and Christopher P. Chengelis, pp. 186-195 (Academic Press)). In the consecutive type studies, 2 mice were dosed at low and moderate doses of 40 and 100 mg/kg. If no severe and irreversible toxicity (euthanasia is required) occurs at these doses, a new pair of animals was initiated at 180 mg/kg, which is 1.8 times higher than 100 mg/kg. Sequential dosages (about 3 doses on 3 pairs of animals, i.e. 2 mice for each drug dose) were increased by a factor of 1.8 until severe and irreversible toxicity (euthanasia is required) occurred. Then another pair of animals was initiated at the highest nonlethal dosage, and successive dosages were increased by a factor of 1.15. The result of this exercise was two dosages, one apparently nonlethal and the other lethal if severe and irreversible toxicity occurs and euthanasia is required, separated by a factor of 1.15. Six mice were dosed at each dosage. If no severe and irreversible toxicity occurred at the lower dosage and at least one with severe and irreversible toxicity occurred at the higher dose, then the lower dose was considered to be the MTD. The compounds of this invention were administered to C3H/HeJ mice by intraperitoneal injection. Drug toxicity was evaluated on mice checked daily for 45 days.

[5] = tested on: MTG-B mouse mammary Adenocarcinoma; assay: In vivo efficacy in C3H/HeJ mice bearing MTG-B tumors; details: for T (Surviving days after treatment of MTG-B mouse mammary Adenocarcinoma In C3H/Hej mice): i.p., control mice survived 6 days; for CD/Taxol: ratio of extra days of survival with compound to extra days of survival with taxol, each compared to control; for T/C %: surviving days treated / surviving days control x 100%, control 6 days
Experimental: This example provides directions for performing in vivo efficacy tests of the compounds of the invention on C3H/HeJ mice bearing MTG-B tumors.
Studies on the compounds of this invention were performed on C3H/HeJ mice bearing […] tumors. […] Treatment was initiated at that time, with the first day of treatment designated as day 0 for calculation and plots. The mice were injected i.p. with thee drug dose levels (⅓, ½, 1×MTD) using both a single injection and the schedule of Q2D×3 (every 2 days for a total of 3 treatments at ⅓ MTD). Control groups of mice bearing 8 mm diameter tumors were treated with vehicle alone. […] When a tumor reached 1.5 g, the mouse bearing the tumor was euthanized. Surviving days measured from day 0 for mice treated with anticancer drugs (T) and surviving days measured from day 0 for control mice (C) were recorded. Tumor growth inhibition values (T/C %) were calculated using the formula T/C %=(surviving days of mice treated with an anticancer drug T/surviving days of control mice C)×100%, as shown in Table II.
The final right-hand column in Table II provides a ratio of the extra days of survival of mice treated with the compounds of the invention (compared to control) to the extra days of survival of mice treated with taxol (compared to control).

Compound | In vitro efficacy: Survival (%) of cells line VM46 ([1]; 1 nM) | In vitro efficacy: Survival (%) of cells line VM46 ([1]; 10 nM) | In vitro efficacy: Survival (%) of cells line PC-3 ([2]; 1 nM) | In vitro efficacy: Survival (%) of cells line PC-3 ([2]; 5 nM) | In Vitro Efficacy: Survival (%) of HCT116 ([3]; 1 nM) | In Vitro Efficacy: Survival (%) of HCT116 ([3]; 10 nM) | In Vitro Efficacy: Survival (%) of HCT116 ([3]; 100 nM) | In Vivo Toxicity MTD40 (ip, mg/kg) in C3H/Hej Mice [4] | T (Surviving days after treatment of MTG-B mouse mammary Adenocarcinoma In C3H/Hej mice) [5] | CD/Taxol [5] | T/C % [5]
CCC1(OC(=O)COc2ccc3ccccc3c2)C(=O)OCc2c1cc1n(c2=O)Cc2cc3ccccc3nc2-1 (centres unmarked) [Example 000224, Camptothecin-20-O-ester of 2-napthoxyacetic acid] | 62.69% | 0% | 87.34% | 37.98% | 100% | 0% | 0% | >150 mg/kg | 7 days | .3 | 117%
CCC1(OC(=O)COc2ccc(F)cc2)C(=O)OCc2c1cc1n(c2=O)Cc2cc3ccccc3nc2-1 (centres unmarked) [Example 000417, camptothecin-20-O-4-fluorophenoxyacetate] | 83.50% | 0% | 97.65% | 61.85% | 100% | 0% | 0% | >150 mg/kg | 18 days | 4 | 300%
CC[C@@]1(OC(=O)CO[C@@H]2C[C@H](C)CC[C@H]2C(C)C)C(=O)OCc2c1cc1n(c2=O)Cc2cc3ccccc3nc2-1 [Example 0002031, Camptothecin-20-O-ester of (−)-menthoxyacetic acid] | 74.84% | 0% | 100% | 69.44% | 100% | 0% | 0% | 100 mg/kg | 12 days | 2.0 | 200%
CCC1(OC(=O)COc2ccc3c(C)c(Cl)c(=O)oc3c2)C(=O)OCc2c1cc1n(c2=O)Cc2cc3ccccc3nc2-1 (centres unmarked) [Example 000129] | 28.15% | 0% | 88.04% | 10.31% | 74.73% | 0% | 0% | 75 mg/kg | 12 days | 2.0 | 200%
